Reference: patent US20030093842A1, “Resistance marker for monocotyledons” (Biogemma UK Limited, priority 1997, published 2003)

System: immature embryos of NB1
Assay: Asulam kill curve: production of embryogenic callus by immature embryos on Asulam-supplemented W3 medium
Assay type: cell-based, wheat
Details: scored after 6 weeks
Description: The tissue culture protocol was essentially as the method of Weeks et al (Plant Physiol., 102:1077-1084 (1993)). Donor plants of the South American spring wheat line designated NB1, obtained from Nickerson Seeds Limited, were grown in a glasshouse under controlled conditions. Immature ears were harvested at 14-20 days post anthesis, and the immature caryopses were removed from the ear and dehusked using forceps. Caryopses were surface-sterilised with 70% ethanol for 2 minutes and 20% Domestos™ (Lever, UK) for 20-30 minutes and then washed with sterile distilled water. Immature embryos were isolated aseptically under a stereo dissecting microscope and placed scutella uppermost on W3 medium (MS supplemented with 20 g/l sucrose and 2 mg/l 2,4-D and solidified with 6 g/l Type I agarose [Sigma, Poole, UK]). Cultures were maintained at 25° C. with a 16 h photoperiod for 5 days prior to bombardment. Immature embryos were isolated as described for example 1, plated onto W3 medium and maintained in the dark. After 5-7 days embryos were transferred to W3 medium supplemented with Asulam (Rhone-Poulenc Agrochemicals, Ongar, UK) at a range of concentrations between 0 and 5 mg/l and maintained at 25° C. with a 16 h photo period. Embryos and embryo-derived embryogenic calli were transferred to fresh selective medium every 2 weeks. The calli were scored for embryogenic response after 6 weeks.

Structure (SMILES): COC(=O)NS(=O)(=O)c1ccc(N)cc1 [Asulam]
- Embryogenic response (%) (Asulam 0.1 mg/l in W3 medium, (no. embryos with embryogenic callus/total no. embryos plated) × 100): 100%
- Embryogenic response (%) (Asulam 0.25 mg/l in W3 medium): 64%
- Embryogenic response (%) (Asulam 0.5 mg/l in W3 medium): 28%
- Embryogenic response (%) (Asulam 1 mg/l in W3 medium): 0%
- Embryogenic response (%) (Asulam 2 mg/l in W3 medium): 0%
- Embryogenic response (%) (Asulam 3 mg/l in W3 medium): 0%
- Embryogenic response (%) (Asulam 4 mg/l in W3 medium): 0%
- Embryogenic response (%) (Asulam 5 mg/l in W3 medium): 0%
